From publication PMC7792585, “Trospium Chloride Transport by Mouse Drug Carriers of the Slc22 and Slc47 Families” (International Journal of Molecular Sciences, 2020) come the findings set out here.

The target in data set [1] is T1, mMate2 (Mus musculus, UniProt Q3V050).
T1 construct: gene Slc47a2; full open reading frame
T1 sequence (Q3V050 1-573): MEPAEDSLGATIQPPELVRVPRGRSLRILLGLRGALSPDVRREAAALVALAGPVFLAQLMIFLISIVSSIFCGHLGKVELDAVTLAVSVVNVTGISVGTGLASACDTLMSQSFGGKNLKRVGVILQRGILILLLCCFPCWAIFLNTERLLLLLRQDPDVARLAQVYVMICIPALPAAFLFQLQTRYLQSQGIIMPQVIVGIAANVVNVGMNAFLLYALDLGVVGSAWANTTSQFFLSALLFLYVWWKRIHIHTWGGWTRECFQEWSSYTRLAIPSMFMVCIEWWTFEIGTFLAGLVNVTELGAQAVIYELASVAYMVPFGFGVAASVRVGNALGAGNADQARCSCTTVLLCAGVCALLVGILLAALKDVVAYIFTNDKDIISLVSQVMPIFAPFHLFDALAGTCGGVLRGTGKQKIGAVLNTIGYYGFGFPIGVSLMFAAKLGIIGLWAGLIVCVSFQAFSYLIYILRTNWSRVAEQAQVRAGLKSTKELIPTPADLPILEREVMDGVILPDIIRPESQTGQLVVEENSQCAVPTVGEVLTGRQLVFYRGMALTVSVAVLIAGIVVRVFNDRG
As to the kind of experiment: inhibition of [3H]MPP+ uptake in mMate2-HEK293 cells at […]. It is filed as cell-based.

Substrate in data set [2]: C[n+]1ccc(-c2ccccc2)cc1
Kind of data set: cells, lysate or membranes.

Substrate in data set [3]: O=C(O[C@H]1C[C@H]2CC[C@@H](C1)[N+]21CCCC1)C(O)(c1ccccc1)c1ccccc1
As to the kind of experiment: [3H]trospium uptake in stably transfected HEK293 cells, Michaelis-Menten (Km). It counts as cell-based, Mus musculus.

In general, Km refers to the substrate concentration at which the rate is half of its maximum.

On to `CC[C@@]1(O)C(=O)OCc2c1cc1n(c2=O)Cc2cc3c(CN(C)C)c(O)ccc3nc2-1` [topotecan], for which the “inhibition of [3H]MPP+ uptake in mMate2-HEK293 cells at 10 and 100 μM” value (“inhibition of [3H]MPP+ uptake” for short) in data set [1] is “mMate2 was significantly inhibited by tetraethylammonium (TEA), topotecan, acyclovir, and levofloxacin”.

On to `CC[N+](CC)(CC)CC` [tetraethylammonium], for which, in data set [1], the “inhibition of [3H]MPP+ uptake” value was “mMate2 was significantly inhibited by tetraethylammonium (TEA), topotecan, acyclovir, and levofloxacin”.

On to `C[C@H]1COc2c(N3CCN(C)CC3)c(F)cc3c(=O)c(C(=O)O)cn1c23` [levofloxacin], for which the “inhibition of [3H]MPP+ uptake” value in data set [1] is “mMate2 was significantly inhibited by tetraethylammonium (TEA), topotecan, acyclovir, and levofloxacin”.

In the case of `Nc1nc2c(ncn2COCCO)c(=O)[nH]1` [acyclovir], the “inhibition of [3H]MPP+ uptake” value in data set [1] was “mMate2 was significantly inhibited by tetraethylammonium (TEA), topotecan, acyclovir, and levofloxacin”.

B1: mMate2 (Mus musculus) (protein)
chain: T1 sequence (Q3V050 1-573)
In the case of B1, the Km in data set [2] turned out to be 60.0 ± 5.6 µM.

B2: mMate1 (Mus musculus) (protein)
chain: MERTEESAPGPGGADAASERRGLRCLLLPGFLEELRALLVLAGPAFLAQLMMFLISFISSVFCGHLGKLELDAVTLAIAVINVTGISVGHGLSSACDTLISQTYGSQNLKHVGVILQRGTLILLLCCFPCWALFINTEQILLLFRQDPDVSRLTQTYVMIFIPALPAAFLYTLQVKYLLNQGIVLPQIMTGIAANLVNALANYVFLYHLHLGVMGSALANTISQFALAIFLFLYILWRRLHQATWGGWSWECLQDWASFLRLAIPSMLMLCIEWWAYEVGSFLSGILGMVELGAQSITYELAIIVYMIPSGFSVAANVRVGNALGAGNIDQAKKSSAISLIVTELFAVTFCVLLLGCKDLVGYIFTTDRDIVALVAQVIPIYAVSHLFEGLACTCGGILRGTGNQKVGAIVNAIGYYVIGLPIGIALMFAAKLGVIGLWSGIIICTTCQTTCFLAFIARLNWKRACQQAQVHANLKVNVALNSAVSHEPAHPVCPESHGEIMMTDLEKKDETQLDQPMNQQQALPIRPKDSNKLSGKQLALRRGLLLLGVVLVLVGGILVRVYIRIE
notes: full open reading frame
Take B2: in data set [3], the Michaelis constant (Km) was determined as 29.3 ± 6.7 µM.

B3: mOct2 (Mus musculus) (protein)
chain: MPTVDDILEHIGEFHLFQKQTFFLLALLSGAFTPIYVGIVFLGFTPNHHCRSPGVAELSQRCGWSPAEELNYTVPGLGSAGEVSFLSQCMRYEVDWNQSTLDCVDPLSSLAANRSHLPLSPCEHGWVYDTPGSSIVTEFNLVCAHSWMLDLFQSLVNVGFFIGAVGIGYLADRFGRKFCLLVTILINAISGVLMAISPNYAWMLVFRFLQGLVSKAGWLIGYILITEFVGLGYRRTVGICYQIAFTVGLLILAGVAYALPNWRWLQFAVTLPNFCFLLYFWCIPESPRWLISQNKNAKAMKIIKHIAKKNGKSVPVSLQSLTADEDTGMKLNPSFLDLVRTPQIRKHTLILMYNWFTSSVLYQGLIMHMGLAGDNIYLDFFYSALVEFPAAFIIILTIDRIGRRYPWAVSNMVAGAACLASVFIPDDLQWLKITVACLGRMGITIAYEMVCLVNAELYPTYIRNLAVLVCSSMCDIGGIVTPFLVYRLTDIWLEFPLVVFAVVGLVAGGLVLLLPETKGKALPETIEDAEKMQRPRKKKEKRIYLQVKKAELS
notes: full open reading frame
For the molecule B3, the Michaelis-Menten constant (Km) in data set [3] is given as 78.5 ± 25.9 µM.

B4: mOct1 (Mus musculus) (protein)
chain: MPTVDDVLEHVGEFGWFQKQAFLLLCLISASLAPIYVGIVFLGFTPDHHCRSPGVAELSQRCGWSPAEELNYTVPGLGSAGEASFLSQCMKYEVDWNQSTLDCVDPLSSLAANRSHLPLSPCEHGWVYDTPGSSIVTEFNLVCGDAWKVDLFQSCVNLGFFLGSLVVGYIADRFGRKLCLLVTTLVTSLSGVLTAVAPDYTSMLLFRLLQGMVSKGSWVSGYTLITEFVGSGYRRTTAILYQVAFTVGLVGLAGVAYAIPDWRWLQLAVSLPTFLFLLYYWFVPESPRWLLSQKRTTQAVRIMEQIAQKNRKVPPADLKMMCLEEDASERRSPSFADLFRTPSLRKHTLILMYLWFSCAVLYQGLIMHVGATGANLYLDFFYSSLVEFPAAFIILVTIDRIGRIYPIAASNLVAGAACLLMIFIPHELHWLNVTLACLGRMGATIVLQMVCLVNAELYPTFIRNLGMMVCSALCDLGGIFTPFMVFRLMEVWQALPLILFGVLGLSAGAVTLLLPETKGVALPETIEEAENLGRRKSKAKENTIYLQVQTGKSPHT
notes: full open reading frame
In the case of B4, the Km in data set [3] is 58.7 ± 15.5 µM.
